Results as given in the NIST ThermoML archive (doi:10.1016/j.fluid.2007.07.039).

Test: xn = mol fraction of the nth substance listed
Details: Liquid, Taylor dispersion method, x1 = 0

binary diffusion coefficient (313.16 K, 15000 kPa)	binary diffusion coefficient (313.16 K, 20000 kPa)	binary diffusion coefficient (313.16 K, 25000 kPa)	binary diffusion coefficient (313.16 K, 30000 kPa)	binary diffusion coefficient (313.16 K, 35000 kPa)	binary diffusion coefficient (323.16 K, 15000 kPa)	binary diffusion coefficient (323.16 K, 20000 kPa)	binary diffusion coefficient (323.16 K, 25000 kPa)	binary diffusion coefficient (323.16 K, 30000 kPa)	binary diffusion coefficient (323.16 K, 35000 kPa)	binary diffusion coefficient (333.16 K, 15000 kPa)	binary diffusion coefficient (333.16 K, 20000 kPa)	binary diffusion coefficient (333.16 K, 25000 kPa)	binary diffusion coefficient (333.16 K, 30000 kPa)	binary diffusion coefficient (333.16 K, 35000 kPa)	SMILES
1.03e-08 m2/s	9.44e-09 m2/s	8.69e-09 m2/s	8.07e-09 m2/s	7.69e-09 m2/s	1.28e-08 m2/s	1.06e-08 m2/s	9.71e-09 m2/s	8.94e-09 m2/s	8.54e-09 m2/s	1.51e-08 m2/s	1.21e-08 m2/s	1.11e-08 m2/s	9.95e-09 m2/s	9.47e-09 m2/s	C=Cc1cccc(C=C)c1 [1,3-diethenylbenzene] + O=C=O
9.46e-09 m2/s	8.66e-09 m2/s	7.92e-09 m2/s	7.48e-09 m2/s	7.15e-09 m2/s	1.15e-08 m2/s	1.01e-08 m2/s	9.08e-09 m2/s	8.52e-09 m2/s	7.98e-09 m2/s	1.28e-08 m2/s	1.19e-08 m2/s	1.06e-08 m2/s	9.45e-09 m2/s	8.98e-09 m2/s	COc1ccccc1Br [1-bromo-2-methoxybenzene] + O=C=O
1.02e-08 m2/s	9.27e-09 m2/s	8.69e-09 m2/s	8.01e-09 m2/s	7.68e-09 m2/s	1.25e-08 m2/s	1.05e-08 m2/s	9.89e-09 m2/s	9.14e-09 m2/s	8.65e-09 m2/s	1.43e-08 m2/s	1.23e-08 m2/s	1.1e-08 m2/s	1.03e-08 m2/s	9.67e-09 m2/s	COc1ccccc1F [2-fluoroanisole] + O=C=O

SMILES	binary diffusion coefficient (313.16 K, 15000 kPa)	binary diffusion coefficient (313.16 K, 20000 kPa)	binary diffusion coefficient (313.16 K, 25000 kPa)	binary diffusion coefficient (313.16 K, 30000 kPa)	binary diffusion coefficient (313.16 K, 35000 kPa)	binary diffusion coefficient (323.16 K, 15000 kPa)	binary diffusion coefficient (323.16 K, 20000 kPa)	binary diffusion coefficient (323.16 K, 25000 kPa)	binary diffusion coefficient (323.16 K, 30000 kPa)	binary diffusion coefficient (323.16 K, 35000 kPa)	binary diffusion coefficient (333.16 K, 15000 kPa)	binary diffusion coefficient (333.16 K, 20000 kPa)	binary diffusion coefficient (333.16 K, 25000 kPa)	binary diffusion coefficient (333.16 K, 30000 kPa)	binary diffusion coefficient (333.16 K, 35000 kPa)
C=CCc1ccccc1 [2-propenylbenzene] + O=C=O	1.03e-08 m2/s	9.11e-09 m2/s	8.93e-09 m2/s	8.29e-09 m2/s	7.67e-09 m2/s	1.23e-08 m2/s	1.12e-08 m2/s	1e-08 m2/s	9.35e-09 m2/s	9.01e-09 m2/s	1.41e-08 m2/s	1.22e-08 m2/s	1.15e-08 m2/s	1.05e-08 m2/s	9.87e-09 m2/s
